The results in this text go back to ChEMBL document CHEMBL1143516, “Mercaptoamide-based non-hydroxamic acid type histone deacetylase inhibitors” (Bioorg Med Chem Lett, 2005).

For orientation: IC50 means the concentration that inhibits the measured activity by half. A low value points to higher potency.

The target of this assay is Histone deacetylase. Put plainly: In vitro inhibitory concentration against Histone deacetylase; Control value 0.06 uM. Type of assay: protein assay, Homo sapiens.
Turning to `O=C(CS)NCCCCC(=O)Nc1cnc2ccccc2c1`, the IC50 is 2800 nM. The same measure for `O=C(CCCCC(=O)Nc1ccccc1)NCCS`: 1500 nM. For the compound `O=C(CCCCCC[N-]CC[S-])Nc1ccccc1.[Zn+2]`, the IC50 is > 100000 nM. Then `O=C(CS)NCCCC(=O)Nc1cnc2ccccc2c1`, with 660 nM; and `O=C(CCCC(=O)Nc1ccccc1)NCCS`, with 3100 nM.

As for `O=C(CS)NCCC(=O)Nc1cnc2ccccc2c1`, the IC50 came to 39500 nM. Then `O=C(NCCS)C(=O)Nc1ccccc1`, with 2800 nM.

In turn, `O=C(CCC(=O)Nc1ccccc1)NCCS` yielded an IC50 of 12500 nM. Take `O=C(CCCCCC(=O)Nc1ccccc1)NCCS`: the IC50 turned out to be 2500 nM. `O=C(CC(=O)Nc1ccccc1)NCCS` gave an IC50 of 70000 nM. Then `O=C(CCCCCCCC(=O)Nc1ccccc1)NCCS`, with 10200 nM; and `O=C(CCCCCCC(=O)Nc1ccccc1)NCCS`, with 2350 nM; and `O=C(CS)NCCCCCC(=O)Nc1cnc2ccccc2c1`, with 1100 nM.
